This is an account of results in US20230017532A1 (Hoffmann-La Roche Inc., priority 2018, published 2023).

Structures can show the parent of a compound that is named as a salt. Where two headings read alike, the source gives them in different places.

The test system of the experiment is Acinetobacter baumannii ATCC17978. The experiment can be described thus: Antimicrobial susceptibility testing: 90% growth inhibitory concentration (IC90) determination, Iso-Sensitest broth, OD 600 nm. Particulars: read-out: ATCC 17978 IC90. It counts as cell-based. How it is done:
Antimicrobial Susceptibility Testing:
90% Growth Inhibitory Concentration (IC90) Determination
The in vitro antimicrobial activity of the compounds was determined according to the following procedure:
The assay used a 10-points Iso-Sensitest broth medium to measure quantitatively the in vitro activity of the compounds against Acinetobacter baumannii ATCC17978 and Acinetobacter baumannii ATCC17961.
Stock compounds in DMSO were serially twofold diluted (e.g. range from 50 to 0.097 μM final concentration) in 384 wells microtiter plates and inoculated with 49 μl the bacterial suspension in Iso-Sensitest medium to have a final cell concentration of ˜5×10^(5) CFU/ml in a final volume/well of 50 ul/well. Microtiter plates were incubated at 35±2° C.
Bacterial cell growth was determined with the measurement of optical density at λ=600 nm each 20 minutes over a time course of 16 h. Growth inhibition was calculated during the logarithmic growth of the bacterial cells with determination of the concentration inhibiting 50% (IC50) and 90% (IC90) of the growth.
Table 1 provides the 90% growth inhibitory concentrations (IC90) in micromoles per liter of the compounds of present invention obtained against the strain Acinetobacter baumannii ATCC17978 and Acinetobacter baumannii ATCC17961.

Setting [1] is: Acinetobacter baumannii, ATCC17978, 16 h, 90% growth inhibitory concentration, Acinetobacter baumannii ATCC17978, Iso-Sensitest broth, OD 600 nm over 16 h.
Where [2] appears, read: Acinetobacter baumannii, ATCC17978, 16 h.

As a reminder, the IC90 is the concentration at which the effect reaches the 90% level. For `COc1ccc(-c2cnc3c(Nc4ccc(C(=O)NCCOCCN5CCNCC5)c(Cl)c4)nccn23)c(F)c1F` [Example 1, 2-chloro-4-[[3-(2,3-difluoro-4-methoxyphenyl)imidazo[1,2-a]pyrazin-8-yl]amino]-N-[2-(2-piperazin-1-ylethoxy)ethyl]benzamide;2,2,2-trifluoroacetic acid], the concentration for an effect of 90% (IC90) under setting [1] came to 120 nM.
Still for that read-out and setting: the value for `COc1ccc(-c2cnc3c(Nc4ccc(C(=O)NCCOCCN(C)C)c(Cl)c4)nccn23)c(F)c1F` [Example 2, 2-chloro-4-[[3-(2,3-difluoro-4-methoxy-phenyl)imidazo[1,2-a]pyrazin-8-yl]amino]-N-[2-[2-(dimethylamino)ethoxy]ethyl]benzamide;2,2,2-trifluoroacetic acid] was 120 nM.
The same measure, in the same setting: the value for `COc1ccc(-c2cnc3c(Nc4ccc(C(=O)NCCOCCN5CCNC(=O)C5)c(C)c4)nccn23)c(F)c1F` [Example 3, 4-[[3-(2,3-difluoro-4-methoxy-phenyl)imidazo[1,2-a]pyrazin-8-yl]amino]-2-methyl-N-[2-[2-(3-oxopiperazin-1-yl)ethoxy]ethyl]benzamide;2,2,2-trifluoroacetic acid] was 380 nM.
On to `COc1ccc(-c2cnc3c(Nc4ccc(C(=O)NCCOCCN)c(Cl)c4)nccn23)cc1F` [Example 4, N-(2-(2-aminoethoxy)ethyl)-2-chloro-4-((3-(3-fluoro-4-methoxyphenyl)imidazo[1,2-a]pyrazin-8-yl)amino)benzamide hydrochloride], for which the IC90 under setting [2] was 98 nM.
Turning to `COc1ccc(-c2cnc3c(Nc4ccc(C(=O)NCCOCCN)c(C)c4)nccn23)c(F)c1F` [Example 5, N-(2-(2-aminoethoxy)ethyl)-4-((3-(2,3-difluoro-4-methoxyphenyl)imidazo[1,2-a]pyrazin-8-yl)amino)-2-methylbenzamide hydrochloride], the IC90 under setting [2] came out at 65 nM.
Regarding `COc1ccc(-c2cnc3c(Nc4ccc(C(=O)NCCOCCN)c(Cl)c4)nccn23)cc1` [Example 6, N-(2-(2-aminoethoxy)ethyl)-2-chloro-4-((3-(4-methoxyphenyl)imidazo[1,2-a]pyrazin-8-yl)amino)benzamide hydrochloride], the IC90 under setting [1] was found to be 120 nM.
In the case of `COc1ccc(-c2cnc3c(Nc4ccc(C(=O)NCCNCCO)c(C)c4)nccn23)cc1` [Example 7, N-(2-((2-hydroxyethyl)amino)ethyl)-4-((3-(4-methoxyphenyl)imidazo[1,2-a]pyrazin-8-yl)amino)-2-methylbenzamide], the IC90 under setting [1] was 1900 nM.
Still for that read-out and setting: the value for `COc1ccc(-c2cnc3c(Nc4ccc(C(=O)NCCOCCCl)c(C)c4)nccn23)cc1` [Example 8, N-(2-(2-chloroethoxy)ethyl)-4-((3-(4-methoxyphenyl)imidazo[1,2-a]pyrazin-8-yl)amino)-2-methylbenzamide] was 630 nM; that for `CCc1cc(Nc2nccn3c(-c4ccc(Cl)c(F)c4F)cnc23)ccc1C(=O)NCCOCCN` [Example 9, N-(2-(2-aminoethoxy)ethyl)-4-((3-(4-chloro-2,3-difluorophenyl)imidazo[1,2-a]pyrazin-8-yl)amino)-2-ethylbenzamide hydrochloride] was 160 nM; that for `Cc1cc(Nc2nccn3c(-c4ccc(OC(F)F)cc4)cnc23)ccc1C(=O)NCCOCC(N)=O` [Example 10, N-(2-(2-amino-2-oxoethoxy)ethyl)-4-((3-(4-(difluoromethoxy)phenyl)imidazo[1,2-a]pyrazin-8-yl)amino)-2-methylbenzamide] was 170 nM.
For the compound `CNC(=O)COCCNC(=O)c1ccc(Nc2nccn3c(-c4ccc(OC(F)F)cc4)cnc23)cc1C` [Example 11, 4-((3-(4-(difluoromethoxy)phenyl)imidazo[1,2-a]pyrazin-8-yl)amino)-2-methyl-N-(2-(2-(methylamino)-2-oxoethoxy)ethyl)benzamide], the concentration for an effect of 90% (IC90) under setting [1] stood at 160 nM.
The same measure, in the same setting: the figure for `Cc1cc(Nc2nccn3c(-c4ccc(OC(F)F)cc4)cnc23)ccc1C(=O)NCCOCCN1C(=O)COC1=O` [Example 12, 4-((3-(4-(difluoromethoxy)phenyl)imidazo[1,2-a]pyrazin-8-yl)amino)-N-(2-(2-(2,4-dioxooxazolidin-3-yl)ethoxy)ethyl)-2-methylbenzamide] is 750 nM; for `CNCCNC(=O)c1ccc(Nc2nccn3c(-c4ccc(OC)c(Cl)c4)cnc23)cc1` [Example 13, 4-[[3-(3-chloro-4-methoxyphenyl)imidazo[1,2-a]pyrazin-8-yl]amino]-N-[2-(methylamino)ethyl]benzamide;hydrochloride] it is 4200 nM.
On the same count and under the same terms, the figure for `COc1ccc(-c2cnc3c(Nc4ccc(C(=O)NCCOCCN)c(C)c4)nccn23)cc1` [Example 14, N-(2-(2-aminoethoxy)ethyl)-4-((3-(4-methoxyphenyl)imidazo[1,2-a]pyrazin-8-yl)amino)-2-methylbenzamide hydrochloride] is 240 nM.
For the compound `COc1ccc(-c2cnc3c(Nc4ccc(C(=O)NCCOCCN)cc4)nccn23)cc1` [Example 15, N-(2-(2-aminoethoxy)ethyl)-4-((3-(4-methoxyphenyl)imidazo[1,2-a]pyrazin-8-yl)amino)benzamide hydrochloride], the IC90 under setting [1] was found to be 3800 nM.
Turning to `Cc1cc(Nc2nccn3c(-c4ccc(OC(F)F)cc4)cnc23)ccc1C(=O)NCCOCCOCCN` [Example 16, N-(2-(2-(2-aminoethoxy)ethoxy)ethyl)-4-((3-(4-(difluoromethoxy)phenyl)imidazo[1,2-a]pyrazin-8-yl)amino)-2-methylbenzamide], the IC90 under setting [1] worked out at 570 nM.
Take `Cc1cc(Nc2nccn3c(-c4ccc(OC(F)F)cc4)cnc23)ccc1C(=O)NCCOCCOCCOCCN` [Example 17, N-(2-(2-(2-(2-aminoethoxy)ethoxy)ethoxy)ethyl)-4-((3-(4-(difluoromethoxy)phenyl)imidazo[1,2-a]pyrazin-8-yl)amino)-2-methylbenzamide]: the IC90 under setting [1] was determined as 1100 nM.
In the case of `COc1ccc(-c2cnc3c(Nc4ccc(C(=O)NCCOCCN)c(Cl)c4)nccn23)c(F)c1F` [Example 18, N-(2-(2-aminoethoxy)ethyl)-2-chloro-4-((3-(2,3-difluoro-4-methoxyphenyl)imidazo[1,2-a]pyrazin-8-yl)amino)benzamide], under setting [1], the IC90 came to 57 nM.
In the case of `N#CCOc1ccc(-c2cnc3c(Nc4ccc(C(=O)NCCOCCn5ccnc5)c(Cl)c4)nccn23)c(F)c1F` [Example 19, N-(2-(2-(1H-imidazol-1-yl)ethoxy)ethyl)-2-chloro-4-((3-(4-(cyanomethoxy)-2,3-difluorophenyl)imidazo[1,2-a]pyrazin-8-yl)amino)benzamide], under setting [1], the IC90 is 83 nM.
In the case of `CCc1cc(Nc2nccn3c(-c4ccc(OCC#N)c(F)c4F)cnc23)ccc1C(=O)NCCOCCN` [Example 20, N-[2-(2-aminoethoxy)ethyl]-4-[[3-[4-(cyanomethoxy)-2,3-difluoro-phenyl]imidazo[1,2-a]pyrazin-8-yl]amino]-2-ethyl-benzamide;2,2,2-trifluoroacetic acid], the IC90 (90% growth inhibitory concentration, Acinetobacter baumannii ATCC17978, Iso-Sensitest broth, OD 600 nm over 16 h) amounted to 64 nM.
With `CCc1cc(Nc2nccn3c(-c4ccc(OCC#N)c(F)c4F)cnc23)ccc1C(=O)NCCOCCN(C)C` [Example 21, 4-[[3-[4-(cyanomethoxy)-2,3-difluoro-phenyl]imidazo[1,2-a]pyrazin-8-yl]amino]-N-[2-[2-(dimethylamino)ethoxy]ethyl]-2-ethyl-benzamide], under setting [1], the IC90 worked out at 160 nM.
